Experimental data from US9045450B2, “Method for chemical synthesis of antrocin and use thereof for suppressing non-small cell lung cancer” (KAIYEW INVESTMENT CORP., priority 2011, dated 2015).
Entries after “also recorded” stand apart in the source; their conditions may differ.

Tests used:
H1975 cells = assay: Apoptosis, flow cytometry; type: cell-based, human; conditions: H1975, antrocin treatment for 48 hours, FIG. 4 (B)
[1] = tested on: normal human bronchial epithelial cells (BEAS-2B); assay: Cytotoxicity, sulforhodamine B; type: cell-based; conditions: antrocin 0.5-10 μM, two days, FIG. 4 (A)
Experimental: (§1) Human lung cancer cell lines (CL1-0, CL1-5, H1975, H441, PC9, A549) and human bronchial epithelia cell lines (BEAS-2B) were obtained from the Institute of Clinical Medicine, Taipei Medical University. The cells were grown and maintained in DMEM medium (Dulbecco's Modified Eagle's Medium and RPMI basal medium supplemented with 10% fetal bovine serum, 2 mM glutamine, […] streptomycin, and 100 U/ml penicillin in a wet incubator at 5% CO2.
Human lung cancer cells (CL1-0, CL1-5, H1975, H441, PC9, A549) and human bronchial epithelial cells (BEAS-2B) were seeded in 96-well culture plates (2000 cells/well) and incubated overnight in 100 μl complete DMEM. Equal amount of complete DMEM sample containing 50 μl antrocin (0.5-10 μM) was placed in other wells of the culture plates. Further, 100 μl complete DMEM sample was also placed in wells as the control group. After two days, total number of human cells in each well was measured using sulforhodamine B (a fluorescent protein dye). Briefly, human cells were fixed in 10% trichloroacetic acid and stained with 0.4% sulforhodamine B. After being stained for 20 minutes, the human cells were washed with 1% acetic acid, and then sulforhodamine B, which was bound with human cells, was dissolved in 10 mM tris base. The optical density was measured at 562 nm by a microtiter plate detector. […]

[2] = tested on: human non-small cell lung cancer cells (CL1-0, CL1-5, H1975, H441, PC9, A549); assay: Cytotoxicity / cell proliferation, sulforhodamine B; type: cell-based; conditions: NSCLC cell lines, antrocin 0.5-10 μM, two days, FIG. 4 (A)
Experimental: as §1
Lung cancer cell were grown in a medium supplemented with 10% fetal bovine serum until the cells grew to approximately 80% of their full-blown size. Old culture solution was drained, the lung cancer cells were washed with PBS buffer solution (phosphate buffered saline), and 10 ml of serum-free culture medium was added. Different pharmaceutical drugs were added according to experimental purposes, all reactions were carried out in an incubator at 37° C.
Human lung cancer cells (CL1-0, CL1-5, H1975, H441, PC9, A549) and human bronchial epithelial cells (BEAS-2B) were seeded in 96-well culture plates (2000 cells/well) and incubated overnight in 100 μl complete DMEM. […] After two days, total number of human cells in each well was measured using sulforhodamine B (a fluorescent protein dye). […] The optical density was measured at 562 nm by a microtiter plate detector. […]

breast cancer cells = conditions: natural antrocin isolated from Antrodia; Rao et al., 2011; cited from earlier work
H441 lung cancer cells = assay: Microarray analysis of gene transcription in H441 cells after antrocin treatment; type: cell-based, Homo sapiens; conditions: 12 hours
Experimental: (§2) The present invention further investigated the effect of antrocin on cancer cells at the genetic level. After H441 cells had been treated with 5 μM antrocin for 12 hours, the effect of antrocin on genetic transcription was analyzed. Only those genes whose expressions were inhibited 3.5 times or more were analyzed as target genes by GeneSpring software package and the results were presented using a tree diagram (FIG. 5). […] These genes play important roles in cell proliferations, inflammatory responses, metastases, invasions, angiogenesis, and cell cycle regulations. […] These genes are associated with transcription factor NF-kB, for example cytokines (IFI44, IFIT1, MX1), inflammatory responses (NFkB1 and IFIT2), stem cell properties (CTNNBL1, SENP2, CEACAM1 and POU5F2), and drug resistance reactions (ABCB5, ABCG2 and XAF1), etc. Based on the aforementioned microarray results, the present invention further investigated protein expressions associated with inflammation related factors, stem cell properties, and drug resistance related molecules.
as §2, with “effect of Antrocin on genetic” for “effect of antrocin on genetic”, “a tree diagram. STRING9.0 software package was also used to predict the effect of antrocin on the signaling pathway of H441 cells and possible target genes to be inhibited (FIG. 5).” for “a tree diagram (FIG. 5).”, “example cytokines (1F144, IFIT1, MX1),” for “example cytokines (IFI44, IFIT1, MX1),”, “further investigated inflammatory responses, stem cell” for “further investigated protein expressions associated with inflammation related factors, stem cell”, “properties, and multidrug resistance-associated protein expressions.” for “properties, and drug resistance related molecules.”

Structure (SMILES): C=C1CC[C@H]2C(C)(C)CCC[C@@]23C(=O)OC[C@@H]13 [antrocin]
- number of cells in early and late (final) stage of apoptosis (H1975 cells): increase in the number of cells in early and late stage of apoptosis in a dose-dependent fashion; also recorded: increased significantly in a dose-dependent fashion
- cytotoxicity against normal human bronchial epithelial cells [1]: no cytotoxicity
- inhibitory effect on cancer cell proliferation [2]: significant inhibitory effect
- inhibition of cell proliferation in breast cancer cells (breast cancer cells): inhibited the cell proliferation; also recorded: effectively inhibited cell proliferation
- number of genes whose expressions were significantly affected (H441 lung cancer cells; 5 μM antrocin): more than 100 genes
- Multiple (reduction of gene expression) (H441 lung cancer cells; ABCB5, probe 8137310, 5 μM antrocin): 3.62
- Multiple (reduction of gene expression) (H441 lung cancer cells; ABCG2, probe 8101675, 5 μM antrocin): 3.93
- Multiple (reduction of gene expression) (H441 lung cancer cells; AKT1S1, probe 8038477, 5 μM antrocin): 10.29
- Multiple (reduction of gene expression) (H441 lung cancer cells; ANG, probe 7973084, 5 μM antrocin): 4.24
- Multiple (reduction of gene expression) (H441 lung cancer cells; CDC14C, probe 8132803, 5 μM antrocin): 5.49
- Multiple (reduction of gene expression) (H441 lung cancer cells; CEACAM1, probe 8037205, 5 μM antrocin): 4.99
- Multiple (reduction of gene expression) (H441 lung cancer cells; CXCL10, probe 8101126, 5 μM antrocin): 4.62
- Multiple (reduction of gene expression) (H441 lung cancer cells; EDG7, probe 7917276, 5 μM antrocin): 3.75
- Multiple (reduction of gene expression) (H441 lung cancer cells; EPSTI1, probe 7971296, 5 μM antrocin): 5.61
- Multiple (reduction of gene expression) (H441 lung cancer cells; FLJ35880, probe 8082585, 5 μM antrocin): 5.48
- Multiple (reduction of gene expression) (H441 lung cancer cells; FOSL1, probe 7949532, 5 μM antrocin): 9.93
- Multiple (reduction of gene expression) (H441 lung cancer cells; GDPD1, probe 8008802, 5 μM antrocin): 3.73
- Multiple (reduction of gene expression) (H441 lung cancer cells; IFI16, probe 7906400, 5 μM antrocin): 4.9
- Multiple (reduction of gene expression) (H441 lung cancer cells; IFI44, probe 7902553, 5 μM antrocin): 8.3
- Multiple (reduction of gene expression) (H441 lung cancer cells; IFIT1, probe 7929065, 5 μM antrocin): 5.28
- Multiple (reduction of gene expression) (H441 lung cancer cells; IFIT2, probe 7929047, 5 μM antrocin): 4.44
- Multiple (reduction of gene expression) (H441 lung cancer cells; IFITM2, probe 7937330, 5 μM antrocin): 6.16
- Multiple (reduction of gene expression) (H441 lung cancer cells; LAMP3, probe 8092348, 5 μM antrocin): 3.8
- Multiple (reduction of gene expression) (H441 lung cancer cells; LBA1, probe 8086125, 5 μM antrocin): 4.35
- Multiple (reduction of gene expression) (H441 lung cancer cells; LILRA3, probe 8039226, 5 μM antrocin): 4.58
- Multiple (reduction of gene expression) (H441 lung cancer cells; MX1, probe 8068713, 5 μM antrocin): 5.42
- Multiple (reduction of gene expression) (H441 lung cancer cells; NFKB1, probe 8096635, 5 μM antrocin): 3.85
- Multiple (reduction of gene expression) (H441 lung cancer cells; OAS2, probe 7958913, 5 μM antrocin): 5.91
- Multiple (reduction of gene expression) (H441 lung cancer cells; OASL, probe 7967117, 5 μM antrocin): 4.09
- Multiple (reduction of gene expression) (H441 lung cancer cells; OR1L8, probe 8163960, 5 μM antrocin): 3.83
- Multiple (reduction of gene expression) (H441 lung cancer cells; PARP9, probe 8090018, 5 μM antrocin): 4.03
- Multiple (reduction of gene expression) (H441 lung cancer cells; PARP14, probe 8082100, 5 μM antrocin): 4.3
- Multiple (reduction of gene expression) (H441 lung cancer cells; POU5F2, probe 8113094, 5 μM antrocin): 3.9
- Multiple (reduction of gene expression) (H441 lung cancer cells; PPARGC1A, probe 8099633, 5 μM antrocin): 4.44
- Multiple (reduction of gene expression) (H441 lung cancer cells; RTP4, probe 8084732, 5 μM antrocin): 4.6
- Multiple (reduction of gene expression) (H441 lung cancer cells; SAMD9L, probe 8140971, 5 μM antrocin): 4.08
- Multiple (reduction of gene expression) (H441 lung cancer cells; SENP2, probe 8084607, 5 μM antrocin): 8.9
- Multiple (reduction of gene expression) (H441 lung cancer cells; SIGLEC5, probe 8038877, 5 μM antrocin): 4.94
- Multiple (reduction of gene expression) (H441 lung cancer cells; SLFN5, probe 8006531, 5 μM antrocin): 3.65
- Multiple (reduction of gene expression) (H441 lung cancer cells; TAX1BP3, probe 8011407, 5 μM antrocin): 7.15
- Multiple (reduction of gene expression) (H441 lung cancer cells; TNFSF10, probe 8092169, 5 μM antrocin): 4.09
- Multiple (reduction of gene expression) (H441 lung cancer cells; TRIM22, probe 7938035, 5 μM antrocin): 7.65
- Multiple (reduction of gene expression) (H441 lung cancer cells; XAF1, transcript variant 1, probe 8004184, 5 μM antrocin): 12.61
- Multiple (reduction of gene expression) (H441 lung cancer cells; ZC3H6, probe 8044450, 5 μM antrocin): 3.5
- Multiple (reduction of gene expression) (H441 lung cancer cells; cDNA DKFZp451O2417, probe 7902541, 5 μM antrocin): 10.74
- Multiple (reduction of gene expression) (H441 lung cancer cells; catenin, beta like 1 (TNNBL1), probe 8062409, 5 μM antrocin): 3.59
